Consider 21 molecules from US9765060B2 (Gilead Sciences, Inc., priority 2014, dated 2017).

A word on the IC50: it is the midpoint of a concentration-inhibition curve.

The structures appear in SMILES notation.

Sequence of PI3K isoform δ (O00329 whole entry, canonical isoform): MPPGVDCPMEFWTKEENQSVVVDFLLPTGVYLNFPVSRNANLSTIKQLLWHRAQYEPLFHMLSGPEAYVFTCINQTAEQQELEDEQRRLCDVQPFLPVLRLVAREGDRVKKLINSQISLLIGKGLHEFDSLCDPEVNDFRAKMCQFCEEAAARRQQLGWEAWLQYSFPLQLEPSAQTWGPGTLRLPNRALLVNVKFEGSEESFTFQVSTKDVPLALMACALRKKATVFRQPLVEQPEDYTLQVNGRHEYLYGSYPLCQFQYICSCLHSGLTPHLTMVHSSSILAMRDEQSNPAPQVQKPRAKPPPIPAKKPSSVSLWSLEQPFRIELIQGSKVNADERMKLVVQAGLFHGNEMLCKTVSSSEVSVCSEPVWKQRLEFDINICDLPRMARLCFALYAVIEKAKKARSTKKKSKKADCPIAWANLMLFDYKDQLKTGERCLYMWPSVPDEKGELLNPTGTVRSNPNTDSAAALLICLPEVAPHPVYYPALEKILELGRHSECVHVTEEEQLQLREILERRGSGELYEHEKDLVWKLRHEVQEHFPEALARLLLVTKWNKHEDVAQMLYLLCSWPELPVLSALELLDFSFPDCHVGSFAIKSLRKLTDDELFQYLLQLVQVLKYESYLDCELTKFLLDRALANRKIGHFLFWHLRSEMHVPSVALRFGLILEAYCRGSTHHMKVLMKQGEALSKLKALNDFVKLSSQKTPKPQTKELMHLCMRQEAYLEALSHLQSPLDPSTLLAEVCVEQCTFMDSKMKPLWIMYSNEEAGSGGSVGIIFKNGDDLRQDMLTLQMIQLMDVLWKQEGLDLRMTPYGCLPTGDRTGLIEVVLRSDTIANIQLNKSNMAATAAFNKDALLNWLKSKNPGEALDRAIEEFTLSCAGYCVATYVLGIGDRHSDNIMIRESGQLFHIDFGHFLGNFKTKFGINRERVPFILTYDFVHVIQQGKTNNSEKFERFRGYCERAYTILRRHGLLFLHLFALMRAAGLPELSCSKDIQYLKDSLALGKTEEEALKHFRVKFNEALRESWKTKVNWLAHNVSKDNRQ
Sequence of PI3K isoform δ (P27986 whole entry partner, canonical isoform): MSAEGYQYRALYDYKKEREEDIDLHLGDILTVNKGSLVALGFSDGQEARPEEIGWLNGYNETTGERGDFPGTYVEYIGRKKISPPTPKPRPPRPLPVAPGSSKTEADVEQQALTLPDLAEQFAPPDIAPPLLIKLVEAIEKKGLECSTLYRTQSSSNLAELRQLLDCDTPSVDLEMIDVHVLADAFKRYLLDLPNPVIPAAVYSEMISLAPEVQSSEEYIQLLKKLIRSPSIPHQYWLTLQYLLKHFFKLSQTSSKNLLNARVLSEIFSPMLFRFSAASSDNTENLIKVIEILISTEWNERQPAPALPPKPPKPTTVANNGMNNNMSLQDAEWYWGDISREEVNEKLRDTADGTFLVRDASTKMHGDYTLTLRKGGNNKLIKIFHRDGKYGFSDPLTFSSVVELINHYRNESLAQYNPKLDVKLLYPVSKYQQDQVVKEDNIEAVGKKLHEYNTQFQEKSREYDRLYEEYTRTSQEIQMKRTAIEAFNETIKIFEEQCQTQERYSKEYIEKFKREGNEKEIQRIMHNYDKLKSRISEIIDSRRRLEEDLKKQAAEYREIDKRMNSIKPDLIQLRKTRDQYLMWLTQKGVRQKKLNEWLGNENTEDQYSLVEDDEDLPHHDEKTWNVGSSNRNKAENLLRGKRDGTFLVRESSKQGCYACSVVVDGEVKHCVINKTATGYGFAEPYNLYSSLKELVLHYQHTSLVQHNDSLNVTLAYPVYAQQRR

The first experiment concerns the target PI3K isoform δ (Homo sapiens (Human), UniProt O00329). The experiment in a line: TR-FRET assay of enzymatic activity of class I PI3K isoforms.
Details: not given
On the technique in general: Time-resolved FRET reads energy transfer from a long-lived donor to a nearby acceptor.
In turn, `CO[C@H]1C[C@@H](c2nc3cccc(Cl)c3c(=O)n2-c2cc(F)cc(F)c2)N(c2nc(N)nc(N)c2C#N)C1` [Compound 19, 2,4-diamino-6-((2S)-2-(5-chloro-3-(3,5-difluorophenyl)-4-oxo-3,4-dihydroquinazolin-2-yl)-4-methoxypyrrolidin-1-yl)pyrimidine-5-carbonitrile] returned an IC50 of 9 nM.

The same experiment, now with this note: IC50 (nM) for PI3K isoform δ (Table 2), TR-FRET; 2× Km ATP, 2 μM PIP2; incubated for 30 minutes at 25° C.
`CS(=O)(=O)c1cccc2nc(C(Nc3nc(N)nc(N)c3C#N)C3CC3)n(-c3ccccc3F)c(=O)c12` (single isomer, unassigned) [Compound 17a-2] returned an IC50 of 8 nM.

Staying with this experiment, now noted: read-out: IC50 (nM) for PI3K isoform δ (Table 2); TR-FRET; 2× Km ATP, 2 μM PIP2; incubated for 30 minutes at 25° C.
Take `CN(C)C(=O)C[C@H](Nc1nc(N)nc(N)c1C#N)c1nc2cccc(Cl)c2c(=O)n1-c1cc(F)cc(F)c1` [Compound 9a, (S)-3-(5-chloro-3-(3,5-difluorophenyl)-4-oxo-3,4-dihydroquinazolin-2-yl)-3-((2,6-diamino-5-cyanopyrimidin-4-yl)amino)-N,N-dimethylpropanamide]: the IC50 worked out at 61 nM.
Same read-out and setting: under `CN(C)C(=O)C[C@H](Nc1nc(N)nc(N)c1C#N)c1nc2cccc(Cl)c2c(=O)n1-c1ccccc1` [Compound 10a, (S)-3-(5-chloro-4-oxo-3-phenyl-3,4-dihydroquinazolin-2-yl)-3-((2,6-diamino-5-cyanopyrimidin-4-yl)amino)-N,N-dimethylpropanamide] stands 2 nM; under `CS(=O)(=O)c1cccc2nc([C@@H](Nc3nc(N)nc(N)c3C#N)C3CC3)n(-c3cccc(F)c3)c(=O)c12` [Compound 5a, (S)-2,4-diamino-6-((cyclopropyl(3-(3-fluorophenyl)-5-(methylsulfonyl)-4-oxo-3,4-dihydroquinazolin-2-yl)methyl)amino)pyrimidine-5-carbonitrile], 5 nM; under `CC(=O)c1c(N)nc(N)nc1N[C@@H](C)c1nc2cccc(Cl)c2c(=O)n1-c1cc(F)cc(F)c1` [Compound 18a, (S)-2 (1-((5-acetyl-2,6-diaminopyrimidin-4-yl)amino)ethyl)-5-chloro-3-(3,5-difluorophenyl)quinazolin-4(3H)-one], 6 nM.

Still in this experiment, the particulars now being: read-out: IC50 (nM) for PI3K isoform δ (Table 3); TR-FRET; 2× Km ATP, 2 μM PIP2; incubated for 30 minutes at 25° C.
As to `C[C@H](Nc1nc(N)nc(N)c1C#N)c1nc2cccc(CCCN3CCCCC3)c2c(=O)n1-c1ccccc1` [Compound 46, (S)-2,4-diamino-6-((1-(4-oxo-3-phenyl-5-(3-(piperidin-1-yl)propyl)-3,4-dihydroquinazolin-2-yl)ethyl)amino)pyrimidine-5-carbonitrile], the IC50 came out at 0.4 nM.
Still for that read-out and setting: under `C[C@H](Nc1nc(N)nc(N)c1C#N)c1nc2cccc(S(=O)(=O)CCO)c2c(=O)n1-c1cccc(F)c1` [Compound 78, (S)-2,4-diamino-6-((1-(3-(3-fluorophenyl)-5-((2-hydroxyethyl)sulfonyl)-4-oxo-3,4-dihydroquinazolin-2-yl)ethyl)amino)pyrimidine-5-carbonitrile] stands 9 nM; under `C[C@H](Nc1nc(Cl)nc(N)c1C#N)c1nc2cccc(Cl)c2c(=O)n1-c1ccccc1` [Compound 104, (S)-4-amino-2-chloro-6-((1-(5-chloro-4-oxo-3-phenyl-3,4-dihydroquinazolin-2-yl)ethyl)amino)pyrimidine-5-carbonitrile], 4 nM; under `Cc1nc(N)c(Br)c(N[C@@H](C)c2nc3cccc(Cl)c3c(=O)n2-c2ccccc2)n1` [Compound 20, (S)-2-(1-((6-amino-5-bromo-2-methylpyrimidin-4-yl)amino)ethyl)-5-chloro-3-phenylquinazolin-4(3H)-one], 21 nM.
Still for that read-out and setting: under `C[C@H](Nc1nc(F)nc(N)c1C#N)c1nc2cccc(Cl)c2c(=O)n1-c1ccccc1` [Compound 106, (S)-4-amino-6-((1-(5-chloro-4-oxo-3-phenyl-3,4-dihydroquinazolin-2-yl)ethyl)amino)-2-fluoropyrimidine-5-carbonitrile] stands 0.8 nM.
On the same count and under the same terms, under `C[C@H](Nc1nc(N)nc(N)c1C#N)c1nc2cccc(OCCN3CCCCCC3)c2c(=O)n1-c1ccccc1` [Compound 23, (S)-2,4-diamino-6-((1-(5-(2-(azepan-1-yl)ethoxy)-4-oxo-3-phenyl-3,4-dihydroquinazolin-2-yl)ethyl)amino)pyrimidine-5-carbonitrile] stands 10 nM.
On to `C[C@H](Nc1nc(N)nc(N)c1C#N)c1nc2c(F)ccc(CCC(N)=O)c2c(=O)n1-c1ccccc1` [Compound 38, (S)-3-(2-(1-((2,6-diamino-5-cyanopyrimidin-4-yl)amino)ethyl)-8-fluoro-4-oxo-3-phenyl-3,4-dihydroquinazoline-5-yl)propanamide], for which the IC50 is 0.5 nM.
The same measure, in the same setting: under `C[C@H](Nc1nc(N)nc(N)c1C#N)c1nc2cccc(CCCC(=O)O)c2c(=O)n1-c1ccccc1` [Compound 69, (S)-4-(2-(1-((2,6-diamino-5-cyanopyrimidin-4-yl)amino)ethyl)-4-oxo-3-phenyl-3,4-dihydroquinazolin-5-yl)butanoic acid] stands 1 nM; under `N#Cc1cc(F)cc(-n2c([C@@H]3CCCN3c3nc(N)nc(N)c3C#N)nc3cccc(Cl)c3c2=O)c1` [Compound 88, (S)-2,4-diamino-6-(2-(5-chloro-3-(3-cyano-5-fluorophenyl)-4-oxo-3,4-dihydroquinazolin-2-yl)pyrrolidin-1-yl)pyrimidine-5-carbonitrile], 17 nM; under `CC1COCC(C)N1CCCc1cccc2nc([C@H](C)Nc3nc(N)nc(N)c3C#N)n(-c3ccccc3)c(=O)c12` (stereo partly drawn) [Compound 49, 2,4-diamino-6-(((1S)-1-(5-(3-(3,5-dimethylmorpholino)propyl)-4-oxo-3-phenyl-3,4-dihydroquinazolin-2-yl)ethyl)amino)pyrimidine-5-carbonitrile], 1.4 nM.
Take `C[C@H](Nc1nc(N)nc(N)c1C#N)c1nc2cccc(OCCN3CCOCC3)c2c(=O)n1-c1ccccc1` [Compound 22, (S)-2,4-diamino-6-((1-(5-(2-morpholinoethoxy)-4-oxo-3-phenyl-3,4-dihydroquinazolin-2-yl)ethyl)amino)pyrimidine-5-carbonitrile]: the half-inhibitory concentration (IC50) stood at 22 nM.
Same read-out and setting: under `CC(C)OC(=O)COc1cccc2nc([C@H](C)Nc3nc(N)nc(N)c3C#N)n(-c3ccccc3)c(=O)c12` [Compound 25, (S)-isopropyl 2-((2-(1-((2,6-diamino-5-cyanopyrimidin-4-yl)amino)ethyl)-4-oxo-3-phenyl-3,4-dihydroquinazolin-5-yl)oxy)acetate] stands 36 nM; under `N#Cc1c(N)nc(N)nc1N1C[C@H](NC(=O)CC2CC2)C[C@H]1c1nc2cccc(Cl)c2c(=O)n1-c1ccccc1` [Compound 114, N-((3R,5S)-5-(5-chloro-4-oxo-3-phenyl-3,4-dihydroquinazolin-2-yl)-1-(2,6-diamino-5-cyanopyrimidin-4-yl)pyrrolidin-3-yl)-2,2-cyclopropylacetamide], 0.9 nM; under `Cc1cccc2c(=O)n(-c3cc(F)cc(F)c3)c([C@@H]3CCCN3c3nc(N)nc(N)c3C#N)nc12` [Compound 86, (S)-2,4-diamino-6-(2-(3-(3,5-difluorophenyl)-8-methyl-4-oxo-3,4-dihydroquinazolin-2-yl)pyrrolidin-1-yl)pyrimidine-5-carbonitrile], 12 nM.
Still for that read-out and setting: under `C[C@H](Nc1nc(N)nc(N)c1Cl)c1nc2c(F)ccc(CCC(N)=O)c2c(=O)n1-c1cc(F)cc(F)c1` [Compound 41, (S)-3-(2-(1-((2,6-diamino-5-chloropyrimidin-4-yl)amino)ethyl)-3-(3,5-difluorophenyl)-8-fluoro-4-oxo-3,4-dihydroquinazoline-5-yl)propanamide] stands 25 nM.
